How the values were obtained:
Type in all cases: in vivo
[1] = test system: barnyardgrass (Echinochloa crus-galli); test: Test A preemergence soil spray, visual injury rating 0-100; conditions: 10 days, 0 = no effect, 100 = complete control
Procedure, shortened: (§1)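 Scale 0–100 (no effect to complete control), visual, versus untreated controls, read 10 days after application. Application: preemergence directed spray onto seeded loam–sand soil, or postemergence to young plants; formulation in non-phytotoxic solvent with surfactant.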

[2] = test system: green foxtail (Setaria viridis); test: as above; conditions: 10 days, 0 = no effect, 100 = complete control
Procedure, shortened: as §1

[3] = test system: oat, wild (wild oat, Avena fatua); test: as above; conditions: 10 days, 0 = no effect, 100 = complete control
Procedure, shortened: as §1

[4] = test system: palmer (palmer amaranth, palmer pigweed, Amaranthus palmeri); test: as above; conditions: 10 days, 0 = no effect, 100 = complete control
Procedure, shortened: as §1

kochia (Bassia scoparia) [5] = test: as above; conditions: 10 days, 0 = no effect, 100 = complete control
Procedure, shortened: as §1

soybean (Glycine max) [6] = test: as above; conditions: 10 days, 0 = no effect, 100 = complete control
Procedure, shortened: as §1

[7] = test system: ragweed (common ragweed, Ambrosia artemisiifolia); test: as above; conditions: 10 days, 0 = no effect, 100 = complete control
Procedure, shortened: as §1

[8] = test system: wheat (Triticum aestivum); test: as above; conditions: 10 days, 0 = no effect, 100 = complete control
Procedure, shortened: as §1

corn (Zea mays) [9] = test: as above; conditions: 10 days, 0 = no effect, 100 = complete control
Procedure, shortened: as §1

[10] = test system: blackgrass (Alopecurus myosuroides); test: as above; conditions: 10 days, 0 = no effect, 100 = complete control
Procedure, shortened: as §1

[11] = test system: ryegrass, Italian (italian ryegrass, Lolium multiflorum); test: as above; conditions: 10 days, 0 = no effect, 100 = complete control
Procedure, shortened: as §1

[12] = test system: barnyardgrass (Echinochloa crusgalli); test: Test B flooded paddy test, visual plant response rating 0-100; conditions: 250 g ai/ha, Flood, applied to paddy water, evaluated after 13 days
Procedure, shortened: (§2)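 Visual evaluation after 13 days. Water-applied treatment, 3 cm flood depth held constant, plants at 2-leaf stage at treatment.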

[13] = test system: sedge, umbrella (small-flower umbrella sedge, Cyperus difformis); test: as above; conditions: 250 g ai/ha, Flood, applied to paddy water, evaluated after 13 days
Procedure, shortened: as §2

rice (Oryza sativa) = test: as above; conditions: 250 g ai/ha, Flood, applied to paddy water, evaluated after 13 days
Procedure, shortened: as §2

[14] = test system: ducksalad (Heteranthera limosa); test: as above; conditions: 250 g ai/ha, Flood, applied to paddy water, evaluated after 13 days
Procedure, shortened: as §2

[15] = test system: barnyardgrass (Echinochloa crus-galli); test: Test A postemergence application, visual injury rating 0-100; conditions: Postemergence
Procedure, shortened: as §1

[16] = test system: green foxtail (Setaria viridis); test: as above; conditions: Postemergence
Procedure, shortened: as §1

[17] = test system: oat, wild (wild oat, Avena fatua); test: as above; conditions: Postemergence
Procedure, shortened: as §1

[18] = test system: palmer (palmer amaranth, palmer pigweed, Amaranthus palmeri); test: as above; conditions: Postemergence
Procedure, shortened: as §1

kochia (Bassia scoparia) [19] = test: as above; conditions: Postemergence
Procedure, shortened: as §1

[20] = test system: horseweed (Erigeron canadensis); test: as above; conditions: Postemergence
Procedure, shortened: as §1

soybean (Glycine max) [21] = test: as above; conditions: Postemergence
Procedure, shortened: as §1

[22] = test system: ragweed (common ragweed, Ambrosia artemisiifolia); test: as above; conditions: Postemergence
Procedure, shortened: as §1

[23] = test system: wheat (Triticum aestivum); test: as above; conditions: Postemergence
Procedure, shortened: as §1

corn (Zea mays) [24] = test: as above; conditions: Postemergence
Procedure, shortened: as §1

[25] = test system: blackgrass (Alopecurus myosuroides); test: as above; conditions: Postemergence
Procedure, shortened: as §1

[26] = test system: galium (catchweed bedstraw, Galium aparine); test: as above; conditions: Postemergence
Procedure, shortened: as §1

[27] = test system: ryegrass, Italian (italian ryegrass, Lolium multiflorum); test: as above; conditions: Postemergence
Procedure, shortened: as §1

[28] = 31 g ai/ha, greenhouse 10 days, 0 no effect, 100 complete control
[29] = 125 g ai/ha, 10 days, 0 is no effect, 100 is complete control

## CC1(C(=O)NC2C=CC(C(=O)OCC(F)(F)F)C2)CN(c2cc(Cl)cc(Cl)c2)C(=O)O1 (stereo not shown) [Compound 64]
[1]; 31 g ai/ha
  Barnyardgrass plant response rating (0-100): 80
[1]; 125 g ai/ha
  Barnyardgrass plant response rating (0 to 100 scale): 90
[2]; 31 g ai/ha
  Foxtail, Green plant response rating (0-100): 70
[2]; 125 g ai/ha
  Foxtail, Green plant response rating (0 to 100 scale): 90
[3]; 31 g ai/ha
  Oat, Wild plant response rating (0-100): 20
[3]; 125 g ai/ha
  Oat, Wild plant response rating (0 to 100 scale): 50
[4]; 31 g ai/ha
  Amaranth, Palmer plant response rating (0-100): 100
[4]; 125 g ai/ha
  Amaranth, Palmer plant response rating (0 to 100 scale): 100
Kochia (Bassia scoparia) [5]; 31 g ai/ha
  Kochia plant response rating (0-100): 50
Kochia (Bassia scoparia) [5]; 125 g ai/ha
  Kochia plant response rating (0 to 100 scale): 90
Soybean (Glycine max) [6]; 31 g ai/ha
  Soybean plant response rating (0-100): 0
Soybean (Glycine max) [6]; 125 g ai/ha
  Soybean plant response rating (0 to 100 scale): 40
[7]; 31 g ai/ha
  Ragweed plant response rating (0-100): 0
[7]; 125 g ai/ha
  Ragweed plant response rating (0 to 100 scale): 80
[8]; 31 g ai/ha
  Wheat plant response rating (0-100): 60
[8]; 125 g ai/ha
  Wheat plant response rating (0 to 100 scale): 90
Corn (Zea mays) [9]; 31 g ai/ha
  Corn plant response rating (0-100): 0
Corn (Zea mays) [9]; 125 g ai/ha
  Corn plant response rating (0 to 100 scale): 80
[10]; 31 g ai/ha
  Blackgrass plant response rating (0-100): 20
[10]; 125 g ai/ha
  Blackgrass plant response rating (0 to 100 scale): 70
[11]; 31 g ai/ha
  Ryegrass, Italian plant response rating (0-100): 50
[11]; 125 g ai/ha
  Ryegrass, Italian plant response rating (0 to 100 scale): 90
[12]
  Plant response rating, Barnyardgrass (0 to 100 scale, 0 is no effect and 100 is complete control): 50
[13]
  Plant response rating, Sedge, Umbrella (0 to 100 scale, 0 is no effect and 100 is complete control): 75
Rice (Oryza sativa)
  Plant response rating, Rice (0 to 100 scale, 0 is no effect and 100 is complete control): 15
[14]
  Plant response rating, Ducksalad (0 to 100 scale, 0 is no effect and 100 is complete control): 90
[15]; [28]
  Barnyardgrass plant response rating (0 to 100 scale): 100
[15]; [29]
  Barnyardgrass plant response rating (0 to 100 scale): 100
[16]; [28]
  Foxtail, Green plant response rating (0 to 100 scale): 90
[16]; [29]
  Foxtail, Green plant response rating (0 to 100 scale): 90
[17]; [28]
  Oat, Wild plant response rating (0 to 100 scale): 90
[17]; [29]
  Oat, Wild plant response rating (0 to 100 scale): 90
[18]; [28]
  Amaranth, Palmer / Pigweed, Palmer plant response rating (0 to 100 scale): 90
[18]; [29]
  Amaranth, Palmer / Pigweed, Palmer plant response rating (0 to 100 scale): 90
Kochia (Bassia scoparia) [19]; [28]
  Kochia plant response rating (0 to 100 scale): 80
Kochia (Bassia scoparia) [19]; [29]
  Kochia plant response rating (0 to 100 scale): 80
[20]; [28]
  Horseweed plant response rating (0 to 100 scale): 50
[20]; [29]
  Horseweed plant response rating (0 to 100 scale): 80
Soybean (Glycine max) [21]; [28]
  Soybean plant response rating (0 to 100 scale): 80
Soybean (Glycine max) [21]; [29]
  Soybean plant response rating (0 to 100 scale): 90
[22]; [28]
  Ragweed plant response rating (0 to 100 scale): 50
[22]; [29]
  Ragweed plant response rating (0 to 100 scale): 80
[23]; [28]
  Wheat plant response rating (0 to 100 scale): 90
[23]; [29]
  Wheat plant response rating (0 to 100 scale): 90
Corn (Zea mays) [24]; [28]
  Corn plant response rating (0 to 100 scale): 90
Corn (Zea mays) [24]; [29]
  Corn plant response rating (0 to 100 scale): 100
[25]; [28]
  Blackgrass plant response rating (0 to 100 scale): 90
[25]; [29]
  Blackgrass plant response rating (0 to 100 scale): 90
[26]; [28]
  Galium plant response rating (0 to 100 scale): 80
[26]; [29]
  Galium plant response rating (0 to 100 scale): 80
[27]; [28]
  Ryegrass, Italian plant response rating (0 to 100 scale): 80
[27]; [29]
  Ryegrass, Italian plant response rating (0 to 100 scale): 90
